Assay results published in paper PMC11144275 (The Lancet. Infectious diseases, 2019).
Counter-ions that a name gives are not always drawn.

How the values were obtained:
EBOV-Makona = test: microbe, parasite or virus in culture; format: cell-based, Ebola virus
EBOV-Ituri = test: microbe, parasite or virus in culture; format: cell-based, Ebola virus

Row | SMILES | EBOV-Makona Selectivity index (EBOV-Makona) | EBOV-Ituri Selectivity index (EBOV-Ituri) | CC50 (Huh-7 cells) | EC50 (EBOV-Makona; Zaire ebolavirus, Huh-7, read-out: EC50 EBOV-Makona) [nM] | EC50 (EBOV-Ituri; Zaire ebolavirus, Huh-7, read-out: EC50 EBOV-Ituri) [nM]
1 | CN(C)CCOc1ccc(/C(=C(/CCCl)c2ccccc2)c2ccccc2)cc1 [Toremifene citrate] | >250 | >625 | – | – | –
2 | NCC(=O)Nc1ccc(-n2nc(C(F)(F)F)cc2-c2ccc3c(ccc4ccccc43)c2)cc1 [AR-12] | – | – | 3·67 (0·14) μM | – | –
3 | COc1c(C)c2c(c(O)c1C/C=C(\C)CCC(=O)OCCN1CCOCC1)C(=O)OC2 [Mycophenolate mofetil] | 97 | 89 | 14·2 (4·3) μM | – | –
4 | CCN(CC)CCOc1ccc(C(=C(Cl)c2ccccc2)c2ccccc2)cc1 [Clomifene citrate] | – | – | 8·43 (1·08) μM | – | –
5 | Nc1ccn([C@@H]2O[C@H](CO)[C@@H](O)[C@H]2F)c(=O)n1 [2′-deoxy-2′-fluorocytidine] | >16 | >14 | – | – | –
6 | CCC(CC)COC(=O)[C@H](C)N[P@](=O)(OC[C@H]1O[C@@](C#N)(c2ccc3c(N)ncnn23)[C@H](O)[C@@H]1O)Oc1ccccc1 [Remdesivir] | – | – | 3·63 (2·88) μM | 12 | 13
7 | NC(=O)c1ncn([C@@H]2O[C@H](CO)[C@@H](O)[C@H]2O)n1 [Ribavirin] | >4 | >3 | – | – | –
8 | CC/C(=C(\c1ccccc1)c1ccc(OCCN(C)C)cc1)c1ccccc1 [Tamoxifen] | – | – | 16·29 (12·05) μM | – | –
